Test results taken from paper PMC9234961 (Journal of Medicinal Chemistry, 2022).
Read-outs that look alike come from different tables or passages of the source.

Experiments:
kinases (468) [1] = biological target: kinases (468) (Homo sapiens, UniProt P16591); details: FER; 1000 nM
kinases (468) [2] = biological target: kinases (468) (Homo sapiens, UniProt Q13163); details: MEK5 (MAP2K5); 1000 nM
kinases (468) [3] = biological target: kinases (468) (Homo sapiens, UniProt Q09013); details: DMPK; 1000 nM
Chain of kinases (468) (Homo sapiens, UniProt Q09013) (Q09013 whole entry): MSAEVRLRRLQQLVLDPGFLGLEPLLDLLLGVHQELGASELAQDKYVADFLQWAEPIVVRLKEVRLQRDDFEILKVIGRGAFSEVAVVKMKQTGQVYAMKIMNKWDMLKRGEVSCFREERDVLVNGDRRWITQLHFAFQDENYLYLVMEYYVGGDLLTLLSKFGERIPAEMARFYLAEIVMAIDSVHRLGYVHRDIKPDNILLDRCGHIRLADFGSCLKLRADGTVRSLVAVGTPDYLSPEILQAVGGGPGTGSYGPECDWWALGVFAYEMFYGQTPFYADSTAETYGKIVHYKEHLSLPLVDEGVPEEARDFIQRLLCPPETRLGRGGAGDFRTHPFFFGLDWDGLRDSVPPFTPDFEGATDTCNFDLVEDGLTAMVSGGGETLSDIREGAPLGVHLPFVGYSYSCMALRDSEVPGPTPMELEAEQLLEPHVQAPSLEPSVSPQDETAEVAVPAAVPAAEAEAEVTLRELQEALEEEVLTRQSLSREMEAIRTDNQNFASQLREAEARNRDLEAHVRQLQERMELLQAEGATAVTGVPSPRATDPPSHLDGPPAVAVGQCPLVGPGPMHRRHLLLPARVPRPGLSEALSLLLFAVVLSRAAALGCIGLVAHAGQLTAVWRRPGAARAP

kinases (468) [4] = biological target: kinases (468) (Homo sapiens, UniProt P27037); details: ACVR2A; 1000 nM
kinases (468) [5] = biological target: kinases (468) (Homo sapiens, UniProt P07333); details: 1000 nM
Chain of kinases (468) (Homo sapiens, UniProt P07333) (P07333 20-972): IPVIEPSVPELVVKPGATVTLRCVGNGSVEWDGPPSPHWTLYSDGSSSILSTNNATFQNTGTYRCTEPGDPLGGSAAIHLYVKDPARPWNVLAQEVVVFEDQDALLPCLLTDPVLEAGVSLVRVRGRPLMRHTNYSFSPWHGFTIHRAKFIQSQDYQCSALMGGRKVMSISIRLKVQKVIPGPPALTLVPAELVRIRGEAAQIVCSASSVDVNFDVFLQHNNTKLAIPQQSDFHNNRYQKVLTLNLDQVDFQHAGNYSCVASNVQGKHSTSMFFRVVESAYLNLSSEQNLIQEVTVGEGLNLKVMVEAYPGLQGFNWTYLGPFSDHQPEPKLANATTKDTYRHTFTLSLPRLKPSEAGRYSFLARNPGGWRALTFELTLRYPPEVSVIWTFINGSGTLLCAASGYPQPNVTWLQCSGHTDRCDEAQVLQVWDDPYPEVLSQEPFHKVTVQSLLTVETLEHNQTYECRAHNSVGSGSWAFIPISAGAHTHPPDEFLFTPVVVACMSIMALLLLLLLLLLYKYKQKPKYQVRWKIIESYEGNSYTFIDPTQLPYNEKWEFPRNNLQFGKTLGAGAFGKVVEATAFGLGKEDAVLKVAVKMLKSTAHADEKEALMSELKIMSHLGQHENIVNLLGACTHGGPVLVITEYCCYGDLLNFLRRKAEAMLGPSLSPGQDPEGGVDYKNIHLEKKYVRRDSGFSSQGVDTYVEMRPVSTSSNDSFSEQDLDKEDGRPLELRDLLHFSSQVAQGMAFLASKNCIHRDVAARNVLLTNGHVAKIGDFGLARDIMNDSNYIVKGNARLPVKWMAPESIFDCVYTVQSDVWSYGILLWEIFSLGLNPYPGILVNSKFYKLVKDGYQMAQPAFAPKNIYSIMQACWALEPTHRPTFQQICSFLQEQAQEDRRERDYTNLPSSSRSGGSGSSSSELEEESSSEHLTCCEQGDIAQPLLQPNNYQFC

kinases (468) [6] = biological target: kinases (468) (Homo sapiens, UniProt P54756); details: EPHA5; 1000 nM
kinases (468) [7] = biological target: kinases (468) (Homo sapiens, UniProt P28482); details: ERK2 (MAPK1); 1000 nM
Chain of kinases (468) (Homo sapiens, UniProt P28482) (P28482 whole entry): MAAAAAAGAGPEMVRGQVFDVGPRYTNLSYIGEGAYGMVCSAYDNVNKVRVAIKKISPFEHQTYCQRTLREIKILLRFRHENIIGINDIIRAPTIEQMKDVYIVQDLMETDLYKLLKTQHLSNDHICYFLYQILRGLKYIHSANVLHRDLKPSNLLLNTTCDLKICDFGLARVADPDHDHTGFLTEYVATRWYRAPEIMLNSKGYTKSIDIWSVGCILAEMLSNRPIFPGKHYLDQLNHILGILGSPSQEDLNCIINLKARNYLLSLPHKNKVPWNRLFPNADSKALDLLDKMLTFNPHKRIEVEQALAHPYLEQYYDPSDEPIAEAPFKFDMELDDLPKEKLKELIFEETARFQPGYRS

kinases (468) [8] = biological target: kinases (468) (Homo sapiens, UniProt O00444); details: PLK4; 1000 nM
kinases (468) [9] = biological target: kinases (468) (Homo sapiens, UniProt Q9NRH2); details: kinase SNRK (Entrez SNRK); compound concentration 1000 nM
kinases (468) [10] = biological target: kinases (468) (Homo sapiens, UniProt P0C264); details: kinase SgK110 (Entrez SgK110); compound concentration 1000 nM
kinases (468) [11] = biological target: kinases (468) (Homo sapiens, UniProt P42336, H1047L); details: PIK3CA(H1047L); 1000 nM
kinases (468) [12] = biological target: kinases (468) (Homo sapiens, UniProt Q92918); details: HPK1 (MAP4K1); 1000 nM
kinases (468) [13] = biological target: kinases (468) (Homo sapiens, UniProt Q9UQB9); details: AURKC; 1000 nM
kinases (468) [14] = biological target: kinases (468) (Homo sapiens, UniProt Q13627); details: DYRK1A; 1000 nM
kinases (468) [15] = biological target: kinases (468) (Homo sapiens, UniProt O15111); details: IKK-alpha (CHUK); 1000 nM
kinases (468) [16] = biological target: kinases (468) (Homo sapiens, UniProt P08922); details: kinase ROS1 (Entrez ROS1); compound concentration 1000 nM
Chain of kinases (468) (Homo sapiens, UniProt P08922) (P08922 28-2347): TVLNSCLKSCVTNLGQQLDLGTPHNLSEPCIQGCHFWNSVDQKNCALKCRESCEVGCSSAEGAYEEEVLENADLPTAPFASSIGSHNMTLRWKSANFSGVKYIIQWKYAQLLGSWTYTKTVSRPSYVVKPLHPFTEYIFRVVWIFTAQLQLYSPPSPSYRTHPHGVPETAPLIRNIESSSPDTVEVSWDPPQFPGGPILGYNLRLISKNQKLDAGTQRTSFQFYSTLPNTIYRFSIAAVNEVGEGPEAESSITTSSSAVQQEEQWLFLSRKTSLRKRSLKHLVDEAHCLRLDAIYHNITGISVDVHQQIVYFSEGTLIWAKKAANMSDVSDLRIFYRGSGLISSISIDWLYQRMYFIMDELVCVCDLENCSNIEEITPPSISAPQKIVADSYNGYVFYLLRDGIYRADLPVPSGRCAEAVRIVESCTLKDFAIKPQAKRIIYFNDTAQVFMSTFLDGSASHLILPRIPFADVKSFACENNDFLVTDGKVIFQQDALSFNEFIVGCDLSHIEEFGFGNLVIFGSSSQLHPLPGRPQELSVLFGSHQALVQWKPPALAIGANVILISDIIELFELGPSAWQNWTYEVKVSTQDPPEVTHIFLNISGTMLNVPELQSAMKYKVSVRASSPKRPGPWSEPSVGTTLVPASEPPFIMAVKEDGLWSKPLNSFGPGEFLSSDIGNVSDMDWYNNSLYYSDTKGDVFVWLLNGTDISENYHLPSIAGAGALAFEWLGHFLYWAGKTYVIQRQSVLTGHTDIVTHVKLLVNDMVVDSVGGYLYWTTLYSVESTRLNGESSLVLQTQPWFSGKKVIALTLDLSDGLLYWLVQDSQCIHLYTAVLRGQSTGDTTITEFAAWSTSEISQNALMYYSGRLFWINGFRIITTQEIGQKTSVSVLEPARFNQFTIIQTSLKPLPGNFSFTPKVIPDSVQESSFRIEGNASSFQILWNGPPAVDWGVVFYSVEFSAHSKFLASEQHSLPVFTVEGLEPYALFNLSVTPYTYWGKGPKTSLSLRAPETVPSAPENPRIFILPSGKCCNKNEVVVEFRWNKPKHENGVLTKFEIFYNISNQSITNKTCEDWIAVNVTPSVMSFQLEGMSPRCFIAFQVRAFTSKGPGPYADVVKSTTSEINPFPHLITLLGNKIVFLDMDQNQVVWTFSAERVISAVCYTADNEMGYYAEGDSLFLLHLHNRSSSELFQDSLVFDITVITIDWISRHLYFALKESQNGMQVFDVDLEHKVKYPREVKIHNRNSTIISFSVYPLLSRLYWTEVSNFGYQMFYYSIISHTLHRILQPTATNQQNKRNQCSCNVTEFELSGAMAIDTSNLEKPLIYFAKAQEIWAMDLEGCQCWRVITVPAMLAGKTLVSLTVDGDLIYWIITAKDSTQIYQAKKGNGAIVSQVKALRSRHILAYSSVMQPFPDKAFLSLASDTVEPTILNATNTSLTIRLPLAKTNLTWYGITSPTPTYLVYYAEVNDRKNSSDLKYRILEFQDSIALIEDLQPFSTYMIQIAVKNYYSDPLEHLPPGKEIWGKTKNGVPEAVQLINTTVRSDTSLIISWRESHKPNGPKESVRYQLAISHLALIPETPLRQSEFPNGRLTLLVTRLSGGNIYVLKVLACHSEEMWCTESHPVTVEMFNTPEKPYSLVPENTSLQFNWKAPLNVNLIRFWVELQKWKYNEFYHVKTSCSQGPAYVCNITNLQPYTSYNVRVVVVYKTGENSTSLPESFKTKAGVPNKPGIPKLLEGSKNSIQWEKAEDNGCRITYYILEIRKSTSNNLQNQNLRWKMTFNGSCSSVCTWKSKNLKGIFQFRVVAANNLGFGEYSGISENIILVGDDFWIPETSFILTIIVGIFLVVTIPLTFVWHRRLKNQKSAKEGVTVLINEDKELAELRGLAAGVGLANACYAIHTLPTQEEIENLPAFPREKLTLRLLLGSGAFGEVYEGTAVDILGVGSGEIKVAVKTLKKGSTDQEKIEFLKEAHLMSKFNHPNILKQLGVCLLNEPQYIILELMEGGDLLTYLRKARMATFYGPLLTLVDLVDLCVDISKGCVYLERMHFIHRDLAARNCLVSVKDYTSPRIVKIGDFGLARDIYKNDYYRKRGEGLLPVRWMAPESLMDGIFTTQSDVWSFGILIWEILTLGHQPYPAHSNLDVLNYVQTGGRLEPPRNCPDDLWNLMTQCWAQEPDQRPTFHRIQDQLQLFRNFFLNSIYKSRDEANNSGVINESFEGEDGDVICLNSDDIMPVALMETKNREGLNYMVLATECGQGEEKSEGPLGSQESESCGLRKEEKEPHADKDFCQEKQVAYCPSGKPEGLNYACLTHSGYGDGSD

kinases (468) [17] = biological target: kinases (468) (Homo sapiens, UniProt Q07912); details: kinase TNK2 (Entrez TNK2); compound concentration 1000 nM
kinases (468) [18] = biological target: kinases (468) (Homo sapiens, UniProt Q86UX6); details: kinase YANK3 (Entrez STK32C); compound concentration 1000 nM
kinases (468) [19] = biological target: kinases (468) (Homo sapiens, UniProt P36888, D835V); details: FLT3(D835V); 1000 nM
kinases (468) [20] = biological target: kinases (468) (Homo sapiens, UniProt P00519, T315I); details: 1000 nM
kinases (468) [21] = biological target: kinases (468) (Homo sapiens, UniProt Q13188); details: MST2 (STK3); 1000 nM
kinases (468) [22] = biological target: kinases (468) (Homo sapiens, UniProt Q92630); details: DYRK2; 1000 nM
kinases (468) [23] = biological target: kinases (468) (Homo sapiens, UniProt P27361); details: ERK1 (MAPK3); 1000 nM
kinases (468) [24] = biological target: kinases (468) (Homo sapiens, UniProt P52333); details: JAK3(JH1domain-catalytic); 1000 nM
kinases (468) [25] = biological target: kinases (468) (Homo sapiens, UniProt O94804); details: LOK (STK10); 1000 nM
kinases (468) [26] = biological target: kinases (468) (Homo sapiens, UniProt Q92772); details: CDKL2; 1000 nM
kinases (468) [27] = biological target: kinases (468) (Homo sapiens, UniProt P35626); details: GRK3 (ADRBK2); 1000 nM
kinases (468) [28] = biological target: kinases (468) (Homo sapiens, UniProt O75676); details: compound concentration 1000 nM
Chain of kinases (468) (Homo sapiens, UniProt O75676) (O75676 whole entry): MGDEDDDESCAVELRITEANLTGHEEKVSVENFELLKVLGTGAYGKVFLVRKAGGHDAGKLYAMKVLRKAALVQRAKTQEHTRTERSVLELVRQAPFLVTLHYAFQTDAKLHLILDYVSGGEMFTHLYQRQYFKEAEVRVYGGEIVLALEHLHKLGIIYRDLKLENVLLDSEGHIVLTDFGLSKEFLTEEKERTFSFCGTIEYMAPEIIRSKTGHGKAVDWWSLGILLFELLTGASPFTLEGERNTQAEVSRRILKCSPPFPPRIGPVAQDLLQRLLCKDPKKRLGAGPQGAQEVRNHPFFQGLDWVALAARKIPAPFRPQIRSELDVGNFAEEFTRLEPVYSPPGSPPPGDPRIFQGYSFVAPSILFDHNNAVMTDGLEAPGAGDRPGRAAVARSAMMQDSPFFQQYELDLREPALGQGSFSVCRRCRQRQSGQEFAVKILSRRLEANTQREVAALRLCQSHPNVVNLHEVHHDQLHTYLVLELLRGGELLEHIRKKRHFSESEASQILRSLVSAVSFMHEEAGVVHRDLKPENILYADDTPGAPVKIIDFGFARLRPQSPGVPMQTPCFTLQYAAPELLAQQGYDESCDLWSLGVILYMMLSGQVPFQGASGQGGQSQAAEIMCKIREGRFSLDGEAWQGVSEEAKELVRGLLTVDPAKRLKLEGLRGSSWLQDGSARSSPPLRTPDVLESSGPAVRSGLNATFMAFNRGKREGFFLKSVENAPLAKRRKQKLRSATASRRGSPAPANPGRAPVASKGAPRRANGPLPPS

kinases (468) [29] = biological target: kinases (468) (Homo sapiens, UniProt P31152); details: ERK4 (MAPK4); 1000 nM
kinases (468) [30] = biological target: kinases (468) (Homo sapiens, UniProt P41743); details: PRKCI; 1000 nM
kinases (468) [31] = biological target: kinases (468) (Homo sapiens, UniProt Q8TD08); details: ERK8 (MAPK15); 1000 nM
kinases (468) [32] = biological target: kinases (468) (Homo sapiens, UniProt Q12866); details: MERTK; 1000 nM
kinases (468) [33] = biological target: kinases (468) (Homo sapiens, UniProt P24723); details: PRKCH; 1000 nM
kinases (468) [34] = biological target: kinases (468) (Homo sapiens, UniProt Q04912); details: MST1R; 1000 nM

Compound: C[C@H]1C[C@@H](O)CN(c2ncc(Cl)c(Nc3ccc4c(c3)c3c(c(=O)n4C)OCC(F)(F)[C@H](C4CC4)N3)n2)C1 [CCT373566_9A]
- Percent Control (kinases (468) [1]): 100%
- Percent Control (kinases (468) [2]): 100%
- Percent Control (kinases (468) [3]): 98%
- Percent Control (kinases (468) [4]): 82%
- Percent Control (kinases (468) [5]; CSF1R-autoinhibited): 77%
- Percent Control (kinases (468) [5]; CSF1R): 100%
- Percent Control (kinases (468) [6]): 98%
- Percent Control (kinases (468) [7]): 96%
- Percent Control (kinases (468) [8]): 100%
- Percent Control (kinases (468) [9]): 93%
- Percent Control (kinases (468) [10]): 95%
- Percent Control (kinases (468) [11]): 84%
- Percent Control (kinases (468) [12]): 82%
- Percent Control (kinases (468) [13]): 100%
- Percent Control (kinases (468) [14]): 95%
- Percent Control (kinases (468) [15]): 99%
- Percent Control (kinases (468) [16]): 100%
- Percent Control (kinases (468) [17]): 93%
- Percent Control (kinases (468) [18]): 100%
- Percent Control (kinases (468) [19]): 90%
- Percent Control (kinases (468) [20]; ABL1(T315I)-nonphosphorylated): 89%
- Percent Control (kinases (468) [20]; ABL1(T315I)-phosphorylated): 88%
- Percent Control (kinases (468) [21]): 100%
- Percent Control (kinases (468) [22]): 91%
- Percent Control (kinases (468) [23]): 98%
- Percent Control (kinases (468) [24]): 78%
- Percent Control (kinases (468) [25]): 100%
- Percent Control (kinases (468) [26]): 100%
- Percent Control (kinases (468) [27]): 100%
- Percent Control (kinases (468) [28]; kinase RPS6KA4(Kin.Dom.1-N-terminal) (Entrez RPS6KA4)): 96%
- Percent Control (kinases (468) [28]; kinase RPS6KA4(Kin.Dom.2-C-terminal) (Entrez RPS6KA4)): 100%
- Percent Control (kinases (468) [29]): 100%
- Percent Control (kinases (468) [30]): 88%
- Percent Control (kinases (468) [31]): 95%
- Percent Control (kinases (468) [32]): 96%
- Percent Control (kinases (468) [33]): 94%
- Percent Control (kinases (468) [34]): 91%
